From patent US10280150B2 (FORMA TM2, Inc., priority 2014, dated 2019) come the findings set out here.

Assay [1] relates to HCT116 isogenic IDH1-R132C mutant cells. As to the kind of experiment: Cellular 2-HG assay using HCT116 mutant IDH1 cells (R132C), RapidFire mass spectrometry. The format is cell-based. Particulars: Homo sapiens, read-out: HCT116 IDH1 R132C IC50 (Range). How it is done:
(§1) Example 106—Cellular 2-HG assay using HCT116 mutant IDH1 cells
(§2) HCT116 isogenic IDH1-R132H and IDH1-R132C mutant cells were cultured in growth media (McCoy's 5 A, 10% fetal bovine serum, 1× antibiotic-antimycotic solution and 0.3 mg/mL G418) in 5% CO2 in an incubator at 37° C. To prepare the assay, cells were trypsinized and resuspended in assay media (McCoy's 5 A with no L-glutamine, 10% fetal bovine serum, 1× antibiotic-antimycotic solution and 0.3 mg/mL G418). An aliquot of 10,000 cells/100 μL was transferred to each well of a clear 96-well tissue culture plate. The cells were incubated in 5% CO2 at 37° C. in an incubator overnight to allow for proper cell attachment. An aliquot of 50 μL of compound containing assay media were then added to each well and the assay plate was kept in 5% CO2 at 37° C. in an incubator for 24 hours. The media was then removed from each well and 150 μL of a methanol/water mixture (80/20 v/v) was added to each well. The plates were kept at −80° C. freezer overnight to allow for complete cell lysis. An aliquot of 125 μL of extracted supernatant was analyzed by RapidFire high-throughout-mass spectrometry (Agilent) to determine the cellular 2-HG level. The IC50 of a given compound was calculated by fitting the dose response curve of cellular 2-HG inhibition at a given concentration with the four parameter logistic equation.

The test system of assay [2] is HCT116 isogenic IDH1-R132H mutant cells. Kind of assay: Cellular 2-HG assay using HCT116 mutant IDH1 cells (R132H), RapidFire mass spectrometry. Type of assay: cell-based. Particulars: Homo sapiens, read-out: HCT116 IDH1 R132H IC50 (Range). The procedure:
as §1, §2

The target in assay [3] is IDH1-R132C recombinant protein (Homo sapiens (Human), UniProt O75874, R132C). As to the kind of experiment: IDH1-R132C enzymatic assay (inhibition of NADPH consumption, diaphorase/resazurin readout). Type of assay: biochemical. The following applies: read-out: Enzyme IDH1 R132C IC50 (Range). The essentials:
(§3)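 Compound was preincubated 15 min at 25 °C with 30 nM IDH1-R132H or 10 nM IDH1-R132C in Tris pH 7.5 buffer with MgCl2, BSA and Triton X-100. Reaction with 2 mM α-ketoglutarate and 20 μM NADPH (solution concentrations) ran 45 min at 25 °C. Remaining NADPH was detected via diaphorase/resazurin fluorescence (ex 535/em 590 nm), and IC50 came from four-parameter fits.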
In general terms: Alamar Blue is a resazurin reagent that responds to reducing activity.

Assay [4] deals with IDH1-R132H recombinant protein (Homo sapiens (Human), UniProt O75874, R132H). As to the kind of experiment: IDH1-R132H enzymatic assay (inhibition of NADPH consumption, diaphorase/resazurin readout). The following applies: read-out: Enzyme IDH1 R132H IC50 (Range). Type of assay: biochemical. In outline: as §3
Sequence of IDH1-R132H recombinant protein (O75874 whole entry R132H): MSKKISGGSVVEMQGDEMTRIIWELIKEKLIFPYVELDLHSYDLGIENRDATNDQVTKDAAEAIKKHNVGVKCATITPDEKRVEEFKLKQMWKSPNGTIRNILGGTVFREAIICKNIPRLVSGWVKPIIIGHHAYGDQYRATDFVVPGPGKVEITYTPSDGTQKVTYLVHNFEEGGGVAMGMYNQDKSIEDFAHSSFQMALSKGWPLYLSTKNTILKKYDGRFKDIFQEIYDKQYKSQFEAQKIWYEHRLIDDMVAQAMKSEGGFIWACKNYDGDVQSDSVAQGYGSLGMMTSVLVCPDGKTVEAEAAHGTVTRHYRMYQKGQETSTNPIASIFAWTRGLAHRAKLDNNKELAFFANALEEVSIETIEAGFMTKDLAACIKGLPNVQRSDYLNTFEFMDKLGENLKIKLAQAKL
The mark [5] stands for this setting: HCT-116, cellular 2-HG level, HCT116 IDH1-R132C cells, 24 hours.
[6] abbreviates: HCT-116, cellular 2-HG level, HCT116 IDH1-R132H cells, 24 hours.

Like-named read-outs stand apart in the source and are kept apart here. Where only a bound is given, the exact number is not on record here.

Sequence of IDH1-R132C recombinant protein (O75874 whole entry R132C): as the sequence (O75874 whole entry R132H) above, with H132C counted along it

By IC50 is commonly meant the concentration that gives 50% inhibition. Turning to `CC(Nc1nccc(N(C(C)C)S(C)(=O)=O)n1)c1cc2cc(Cl)ccc2[nH]c1=O` (stereo not drawn) [Compound I-20], the IC50 in assay [1] (setting [5]), in assay [2] (setting [6]), in assay [3] and in assay [4] was 0.1 to 1 µM in each case.

Take `C[C@H](Nc1nccc(-n2cnc3c2CCC3)n1)c1cc2cc(Cl)ccc2[nH]c1=O` [Compound I-55]: the half-maximal inhibitory concentration (IC50) in assay [1] (setting [5]), in assay [2] (setting [6]), in assay [3] and in assay [4] was 0.1 to 1 µM throughout.

As for `C[C@H](Nc1nccc(-c2cncc3ccccc23)n1)c1cc2cc(Cl)ccc2[nH]c1=O` [Compound I-92], the 50% inhibitory concentration (IC50) in assay [1] (setting [5]) lay in the range of 1 to 10 µM; in assay [2] (setting [6]) it was 0.1 to 1 µM; in assay [3], 0.1 to 1 µM; in assay [4], 0.1 to 1 µM.

As for `Cc1cccn1-c1ccnc(N[C@@H](C)c2cc3cc(Cl)ccc3[nH]c2=O)n1` [Compound I-51, (S)-6-Chloro-3-(1-((4-(2-methyl-1H-pyrrol-1-yl)pyrimidin-2-yl)amino)ethyl) quinolin-2(1H)-one], the 50% inhibitory concentration (IC50) in assay [1] (setting [5]) was 0.1 to 1 µM; in assay [2] (setting [6]), 0.1 to 1 µM; in assay [3], 0.1 to 1 µM; in assay [4] it was less than 0.1 µM.

Regarding `COc1nc(N[C@@H](C)c2cc3cc(Cl)c(O[C@H](C)c4ccccn4)cc3[nH]c2=O)ncc1C#N` [Compound I-158, 2-(((S)-1-(6-chloro-2-oxo-7-((R)-1-(pyridin-2-yl)ethoxy)-1,2-dihydroquinolin-3-yl)ethyl)amino)-4-methoxypyrimidine-5-carbonitrile], the concentration for half-maximal inhibition (IC50) is 0.1 to 1 µM in assay [1] (setting [5]), less than 0.1 µM in assay [2] (setting [6]), less than 0.1 µM in assay [3] and less than 0.1 µM in assay [4].

With `C[C@H](Nc1nccc(N2CCOC2=O)n1)c1cc2cc(Cl)ccc2[nH]c1=O` [Compound I-44, (S)-3-(2-((1-(6-Chloro-2-oxo-1,2-dihydroquinolin-3-yl)ethyl)amino)pyrimidin-4-yl)oxazolidin-2-one], the half-inhibitory concentration (IC50) was 0.1 to 1 µM in assay [1] (setting [5]), less than 0.1 µM in assay [2] (setting [6]), less than 0.1 µM in assay [3] and less than 0.1 µM in assay [4].

With `C[C@H](Nc1nccc(C(N)=O)n1)c1cc2cc(Cl)ccc2[nH]c1=O` [Compound I-114, (S)-2-((1-(6-chloro-2-oxo-1,2-dihydroquinolin-3-yl)ethyl)amino)pyrimidine-4-carboxamide], the IC50 in assay [1] (setting [5]) is 0.1 to 1 µM; in assay [2] (setting [6]), 0.1 to 1 µM; in assay [3] it was 0.1 to 1 µM; in assay [4] it was less than 0.1 µM.

For the compound `C[C@H](Nc1nccc(-c2ccn[nH]2)n1)c1cc2cc(Cl)ccc2[nH]c1=O` [Compound I-87], the IC50 in assay [1] (setting [5]) fell in the range of 1 to 10 µM; in assay [2] (setting [6]) it was 0.1 to 1 µM; in assay [3], 1 to 10 µM; in assay [4], 0.1 to 1 µM.

For the compound `C[C@H](Nc1nccc([S@@+](C)[O-])n1)c1cc2cc(Cl)ccc2[nH]c1=O` [Compound I-112], the half-maximal inhibitory concentration (IC50) in assay [1] (setting [5]) was in the range of 1 to 10 µM; in assay [2] (setting [6]), 0.1 to 1 µM; in assay [3] it was 1 to 10 µM; in assay [4] it was 0.1 to 1 µM.

In the case of `COc1nc(N[C@@H](C)c2cc3cc(Cl)ccc3[nH]c2=O)ncc1C#N` [Compound I-36, (S)-2-((1-(6-Chloro-2-oxo-1,2-dihydroquinolin-3-yl)ethyl)amino)-4-methoxypyrimidine-5-carbonitrile], the IC50 in assay [1] (HCT-116, 24 h) was 0.1 to 1 µM; in assay [2] (HCT-116, 24 h), less than 0.1 µM; in assay [3] it was 0.1 to 1 µM; in assay [4] it was less than 0.1 µM.

Consider `COc1nc(NC(C)c2cc3cc(Cl)c(F)cc3[nH]c2=O)ncc1C#N` (stereo not drawn) [Compound I-142], for which the concentration for half-maximal inhibition (IC50) in assay [1] (HCT-116, 24 h) is 0.1 to 1 µM; in assay [2] (HCT-116, 24 h), less than 0.1 µM; in assay [3], 0.1 to 1 µM; in assay [4], less than 0.1 µM.

For `C[C@H](Nc1ncc(C#N)c(O)n1)c1cc2cc(Cl)c(OCc3ccccn3)cc2[nH]c1=O` [Compound I-152, (S)-2-((1-(6-chloro-2-oxo-7-(pyridin-2-ylmethoxy)-1,2-dihydroquinolin-3-yl)ethyl)amino)-4-hydroxypyrimidine-5-carbonitrile], the IC50 is 1 to 10 µM in assay [1] (setting [5]), 0.1 to 1 µM in assay [2] (setting [6]), 1 to 10 µM in assay [3] and less than 0.1 µM in assay [4].

Turning to `C[C@H](Nc1nccc(-c2cnsc2)n1)c1cc2cc(Cl)ccc2[nH]c1=O` [Compound I-88], the 50% inhibitory concentration (IC50) was 1 to 10 µM in assay [1] (setting [5]), 0.1 to 1 µM in assay [2] (setting [6]), 0.1 to 1 µM in assay [3] and less than 0.1 µM in assay [4].

`Cc1nnnn1-c1ccnc(N[C@@H](C)c2cc3cc(Cl)ccc3[nH]c2=O)n1` [Compound I-59, (S)-6-chloro-3-(1-((4-(5-methyl-1H-tetrazol-1-yl)pyrimidin-2-yl)amino)ethyl)quinolin-2(1H)-one]: the concentration for half-maximal inhibition (IC50) in assay [1] (setting [5]) was 0.1 to 1 µM; in assay [2] (setting [6]) it was 0.1 to 1 µM; in assay [3], 0.1 to 1 µM; in assay [4], less than 0.1 µM.

Regarding `COc1cc2[nH]c(=O)c([C@H](C)Nc3ncc(C#N)c(OC)n3)cc2cc1Cl` [Compound I-143, (S)-2-((1-(6-Chloro-7-methoxy-2-oxo-1,2-dihydroquinolin-3-yl)ethyl)amino)-4-methoxypyrimidine-5-carbonitrile], the IC50 was less than 0.1 µM in assay [1] (HCT-116, 24 h); less than 0.1 µM in assay [2] (HCT-116, 24 h); less than 0.1 µM in assay [3]; less than 0.1 µM in assay [4].

In the case of `COc1nc(N[C@@H](C)c2cc3cc(Cl)c(OCC4CC4)cc3[nH]c2=O)ncc1C#N` [Compound I-159, (S)-2-((1-(6-chloro-7-(Cyclopropylmethoxy)-2-oxo-1,2-dihydroquinolin-3-yl)ethyl)amino)-4-methoxypyrimidine-5-carbonitrile], the IC50 in assay [1] (setting [5]), in assay [2] (setting [6]), in assay [3] and in assay [4] was less than 0.1 µM throughout.

For the compound `C[C@H](Nc1nccc(-n2cccc2C(F)(F)F)n1)c1cc2cc(Cl)ccc2[nH]c1=O` [Compound I-65, (S)-6-Chloro-3-(1-((4-(2-(triflouromethyl)-1H-pyrrol-1-yl)pyrimidin-2-yl)amino)ethyl) quinolin-2(1H)-one], the half-inhibitory concentration (IC50) in assay [1] (setting [5]) lay in the range of 1 to 10 µM; in assay [2] (setting [6]), 0.1 to 1 µM; in assay [3] it was 1 to 10 µM; in assay [4], 0.1 to 1 µM.

For the compound `CC(C)CNC(=O)c1ccnc(N[C@@H](C)c2cc3cc(Cl)ccc3[nH]c2=O)n1` [Compound I-116], the IC50 in assay [1] (setting [5]) was in the range of 1 to 10 µM; in assay [2] (setting [6]) it was 0.1 to 1 µM; in assay [3], 0.1 to 1 µM; in assay [4] it was 0.1 to 1 µM.

Turning to `O=C1OCCN1c1ccnc(NCc2cc3cc(Cl)ccc3[nH]c2=O)n1` [Compound I-47], the IC50 in assay [1] (setting [5]) is 1 to 10 µM; in assay [2] (setting [6]), 0.1 to 1 µM; in assay [3] it was 0.1 to 1 µM; in assay [4], 0.1 to 1 µM.

Consider `CC(C)n1nccc1-c1ccnc(N[C@@H](C)c2cc3cc(Cl)ccc3[nH]c2=O)n1` [Compound I-75], for which the half-inhibitory concentration (IC50) was 1 to 10 µM in assay [1] (setting [5]), 0.1 to 1 µM in assay [2] (setting [6]), 0.1 to 1 µM in assay [3] and less than 0.1 µM in assay [4].

`C[C@H](Nc1nccc(-c2cncn2Cc2ccccc2)n1)c1cc2cc(Cl)ccc2[nH]c1=O` [Compound I-68]: the IC50 in assay [1] (setting [5]) is 0.1 to 1 µM; in assay [2] (setting [6]), less than 0.1 µM; in assay [3] it was less than 0.1 µM; in assay [4], less than 0.1 µM.

For `COc1nc(N[C@@H](C)c2cc3cc(Cl)cnc3[nH]c2=O)ncc1C#N` [Compound I-155, (S)-2-((1-(6-chloro-2-oxo-1,2-dihydro-1,8-naphthyridin-3-yl)ethyl)amino)-4-methoxy pyrimidine-5-carbonitrile], the IC50 is 1 to 10 µM in assay [1] (setting [5]), 0.1 to 1 µM in assay [2] (setting [6]), 1 to 10 µM in assay [3] and less than 0.1 µM in assay [4].

For the compound `COc1nc(N[C@@H](C)c2cc3cc(Cl)c(OCc4ccccn4)cc3[nH]c2=O)ncc1C#N` [Compound I-151, (S)-2-((1-(6-Chloro-2-oxo-7-(pyridin-2-ylmethoxy)-1,2-dihydroquinolin-3-yl)ethyl)amino)-4-methoxypyrimidine-5-carbonitrile], the IC50 in assay [1] (setting [5]), in assay [2] (setting [6]), in assay [3] and in assay [4] was less than 0.1 µM each time.

Consider `C[C@H](Nc1nccc(-n2ccnc2)n1)c1cc2cc(Cl)ccc2[nH]c1=O` [Compound I-54], for which the IC50 is 1 to 10 µM in assay [1] (setting [5]), 1 to 10 µM in assay [2] (setting [6]), 1 to 10 µM in assay [3] and 0.1 to 1 µM in assay [4].
